Test results: ChEMBL document CHEMBL3885861, “Open TG-GATES”

Organism: Rattus norvegicus
Experiment: Open TG-GATES - Regimen: Daily Repeat
Assay type: toxicity, organism-based, Sprague-Dawley
Parameters: regimen Daily Repeat, gender Male, age 6 weeks
Details: in vivo, po, route gavage; for APTT / Bas / Eos / Fbg / Hb / Ht / Lym / MCH / MCHC / MCV / Mono / Neu / PT / Plat / RBC / Ret / WBC: tissue Blood; for KIDNEY_L / KIDNEY_R / KIDNEY_TOTAL: tissue Kidney; for LIVER: tissue Liver; for A/G / ALP / ALT / AST / BUN / CRE / Ca / Cl / DBIL / GLC / IP / K / LDH / Na / PL / RALB / TBIL / TC / TG / TP / gamma-GTP: tissue Plasma
[1] = 300 mg/kg, 72 h, dose level Middle, time 3 day
[2] = 300 mg/kg, […], dose level Middle, time 7 day
[3] = 300 mg/kg, […], dose level Middle, time 14 day
[4] = 300 mg/kg, […], dose level Middle, time 28 day
[5] = 1000 mg/kg, 72 h, dose level High, time 3 day
[6] = 1000 mg/kg, […], dose level High, time 7 day
[7] = 1000 mg/kg, […], dose level High, time 14 day
[8] = 1000 mg/kg, […], dose level High, time 28 day

CCOc1ccc(NC(=O)CC(C)O)cc1 (centres undefined) [BUCETIN]
TERMINAL_BW [1]: 247.8 g
APTT [1]: 18.9 s
Bas [1]: 0%
Eos [1]: 1.2%
Fbg [1]: 291.2 mg/dL
Hb [1]: 13.1 g/dL
Ht [1]: 39.1%
Lym [1]: 72.8%
MCH [1]: 20.5 pg
MCHC [1]: 33.4%
MCV [1]: 61.3 fL
Mono [1]: 3.4%
Neu [1]: 21.6%
PT [1]: 14.2 s
Plat [1]: 123.5 x10_4/uL
RBC [1]: 638.8 x10_4/ul
Ret [1]: 6.8%
WBC [1]: 109.9 x10_2/uL
KIDNEY_L [1]: 1 g
KIDNEY_R [1]: 1 g
KIDNEY_TOTAL [1]: 2 g
LIVER [1]: 11.7 g
A/G [1]: 0.9
ALP [1]: 1855.6 IU/L
ALT [1]: 39.2 IU/L
AST [1]: 68.2 IU/L
BUN [1]: 15.2 mg/dL
CRE [1]: 0.2 mg/dL
Ca [1]: 10.8 mg/dL
Cl [1]: 104.8 meq/L
DBIL [1]: 0.024 mg/dL
GLC [1]: 184 mg/dL
IP [1]: 6.9 mg/dL
K [1]: 4.2 meq/L
LDH [1]: 99.6 IU/L
Na [1]: 143.4 meq/L
PL [1]: 164.2 mg/dL
RALB [1]: 2.7 g/dL
TBIL [1]: 0.052 mg/dL
TC [1]: 82.8 mg/dL
TG [1]: 116.2 mg/dL
TP [1]: 5.8 g/dL
gamma-GTP [1]: 1 IU/L
TERMINAL_BW [2]: 289.1 g
TERMINAL_BW [3]: 360.7 g
TERMINAL_BW [4]: 431.8 g
APTT [2]: 16.1 s
Bas [2]: 0%
Eos [2]: 1%
Fbg [2]: 278.6 mg/dL
Hb [2]: 13.4 g/dL
Ht [2]: 39.6%
Lym [2]: 74%
MCH [2]: 21.1 pg
MCHC [2]: 33.7%
MCV [2]: 62.5 fL
Mono [2]: 2.8%
Neu [2]: 21.6%
PT [2]: 14 s
Plat [2]: 120 x10_4/uL
RBC [2]: 634.2 x10_4/ul
Ret [2]: 6.8%
WBC [2]: 107.3 x10_2/uL
APTT [3]: 15.9 s
Bas [3]: 0%
Eos [3]: 1%
Fbg [3]: 312 mg/dL
Hb [3]: 14.4 g/dL
Ht [3]: 42.4%
Lym [3]: 75.2%
MCH [3]: 20.8 pg
MCHC [3]: 34.1%
MCV [3]: 61 fL
Mono [3]: 2.4%
Neu [3]: 21.2%
PT [3]: 13.8 s
Plat [3]: 113 x10_4/uL
RBC [3]: 695.6 x10_4/ul
Ret [3]: 4.7%
WBC [3]: 106.6 x10_2/uL
APTT [4]: 18.8 s
Bas [4]: 0%
Eos [4]: 1.4%
Fbg [4]: 274 mg/dL
Hb [4]: 14.7 g/dL
Ht [4]: 42.6%
Lym [4]: 74.6%
MCH [4]: 19.3 pg
MCHC [4]: 34.5%
MCV [4]: 56 fL
Mono [4]: 2.2%
Neu [4]: 20.6%
PT [4]: 14.1 s
Plat [4]: 106.2 x10_4/uL
RBC [4]: 760 x10_4/ul
Ret [4]: 3.5%
WBC [4]: 138.7 x10_2/uL
KIDNEY_L [2]: 1.2 g
KIDNEY_R [2]: 1.1 g
KIDNEY_TOTAL [2]: 2.3 g
KIDNEY_L [3]: 1.4 g
KIDNEY_R [3]: 1.4 g
KIDNEY_TOTAL [3]: 2.7 g
KIDNEY_L [4]: 1.6 g
KIDNEY_R [4]: 1.6 g
KIDNEY_TOTAL [4]: 3.2 g
LIVER [2]: 13.6 g
LIVER [3]: 17.2 g
LIVER [4]: 18.4 g
A/G [2]: 0.8
ALP [2]: 1676.6 IU/L
ALT [2]: 42.4 IU/L
AST [2]: 67.4 IU/L
BUN [2]: 15.8 mg/dL
CRE [2]: 0.2 mg/dL
Ca [2]: 11 mg/dL
Cl [2]: 105.2 meq/L
DBIL [2]: 0.018 mg/dL
GLC [2]: 190.6 mg/dL
IP [2]: 6.6 mg/dL
K [2]: 4.2 meq/L
LDH [2]: 115.2 IU/L
Na [2]: 143.8 meq/L
PL [2]: 178 mg/dL
RALB [2]: 2.7 g/dL
TBIL [2]: 0.04 mg/dL
TC [2]: 91.2 mg/dL
TG [2]: 131.2 mg/dL
TP [2]: 5.9 g/dL
gamma-GTP [2]: 1 IU/L
A/G [3]: 0.8
ALP [3]: 1729.4 IU/L
ALT [3]: 34.2 IU/L
AST [3]: 63 IU/L
BUN [3]: 15 mg/dL
CRE [3]: 0.2 mg/dL
Ca [3]: 11.2 mg/dL
Cl [3]: 104 meq/L
DBIL [3]: 0.02 mg/dL
GLC [3]: 189.4 mg/dL
IP [3]: 6.9 mg/dL
K [3]: 4 meq/L
LDH [3]: 72.8 IU/L
Na [3]: 143.4 meq/L
PL [3]: 179.2 mg/dL
RALB [3]: 2.8 g/dL
TBIL [3]: 0.048 mg/dL
TC [3]: 79.8 mg/dL
TG [3]: 208.6 mg/dL
TP [3]: 6.3 g/dL
gamma-GTP [3]: 1 IU/L
A/G [4]: 0.8
ALP [4]: 1081.4 IU/L
ALT [4]: 39 IU/L
AST [4]: 62.4 IU/L
BUN [4]: 15.2 mg/dL
CRE [4]: 0.3 mg/dL
Ca [4]: 11.2 mg/dL
Cl [4]: 104.8 meq/L
DBIL [4]: 0.028 mg/dL
GLC [4]: 188.8 mg/dL
IP [4]: 6.3 mg/dL
K [4]: 3.8 meq/L
LDH [4]: 78.8 IU/L
Na [4]: 145.4 meq/L
PL [4]: 170.6 mg/dL
RALB [4]: 2.8 g/dL
TBIL [4]: 0.07 mg/dL
TC [4]: 77.2 mg/dL
TG [4]: 188.2 mg/dL
TP [4]: 6.3 g/dL
gamma-GTP [4]: 1 IU/L
TERMINAL_BW [5]: 228.7 g
APTT [5]: 18.5 s
Bas [5]: 0%
Eos [5]: 0.8%
Fbg [5]: 270.2 mg/dL
Hb [5]: 12.8 g/dL
Ht [5]: 38.4%
Lym [5]: 72.6%
MCH [5]: 20.7 pg
MCHC [5]: 33.4%
MCV [5]: 61.9 fL
Mono [5]: 2.8%
Neu [5]: 22.6%
PT [5]: 14.1 s
Plat [5]: 123.8 x10_4/uL
RBC [5]: 620 x10_4/ul
Ret [5]: 2.9%
WBC [5]: 111.1 x10_2/uL
KIDNEY_L [5]: 1.1 g
KIDNEY_R [5]: 1 g
KIDNEY_TOTAL [5]: 2.1 g
LIVER [5]: 11.8 g
A/G [5]: 0.9
ALP [5]: 1511.6 IU/L
ALT [5]: 41.2 IU/L
AST [5]: 74 IU/L
BUN [5]: 15.4 mg/dL
CRE [5]: 0.2 mg/dL
Ca [5]: 10.6 mg/dL
Cl [5]: 106.8 meq/L
DBIL [5]: 0.028 mg/dL
GLC [5]: 168 mg/dL
IP [5]: 6.2 mg/dL
K [5]: 4.3 meq/L
LDH [5]: 76 IU/L
Na [5]: 144.6 meq/L
PL [5]: 161.4 mg/dL
RALB [5]: 2.6 g/dL
TBIL [5]: 0.06 mg/dL
TC [5]: 78.6 mg/dL
TG [5]: 102.2 mg/dL
TP [5]: 5.6 g/dL
gamma-GTP [5]: 1.2 IU/L
TERMINAL_BW [6]: 268.8 g
TERMINAL_BW [7]: 329.1 g
TERMINAL_BW [8]: 402.4 g
APTT [6]: 20.3 s
Bas [6]: 0%
Eos [6]: 1%
Fbg [6]: 270.6 mg/dL
Hb [6]: 12.7 g/dL
Ht [6]: 38.7%
Lym [6]: 67.2%
MCH [6]: 21 pg
MCHC [6]: 32.9%
MCV [6]: 64 fL
Mono [6]: 3.4%
Neu [6]: 27.6%
PT [6]: 14.3 s
Plat [6]: 126.9 x10_4/uL
RBC [6]: 606 x10_4/ul
Ret [6]: 9.2%
WBC [6]: 166.9 x10_2/uL
APTT [7]: 21.6 s
Bas [7]: 0.8%
Eos [7]: 0.6%
Fbg [7]: 295.4 mg/dL
Hb [7]: 12.9 g/dL
Ht [7]: 39.7%
Lym [7]: 69.2%
MCH [7]: 22.9 pg
MCHC [7]: 32.7%
MCV [7]: 70.1 fL
Mono [7]: 3%
Neu [7]: 26.2%
PT [7]: 14.3 s
Plat [7]: 126.3 x10_4/uL
RBC [7]: 567.8 x10_4/ul
Ret [7]: 10.4%
WBC [7]: 123.6 x10_2/uL
APTT [8]: 19.3 s
Bas [8]: 0.6%
Eos [8]: 1.2%
Fbg [8]: 278.2 mg/dL
Hb [8]: 14.3 g/dL
Ht [8]: 42.1%
Lym [8]: 78.2%
MCH [8]: 23.2 pg
MCHC [8]: 34%
MCV [8]: 68.4 fL
Mono [8]: 2.2%
Neu [8]: 17.4%
PT [8]: 14.4 s
Plat [8]: 102.2 x10_4/uL
RBC [8]: 618.4 x10_4/ul
Ret [8]: 8%
WBC [8]: 137.4 x10_2/uL
KIDNEY_L [6]: 1.1 g
KIDNEY_R [6]: 1.1 g
KIDNEY_TOTAL [6]: 2.3 g
KIDNEY_L [7]: 1.3 g
KIDNEY_R [7]: 1.3 g
KIDNEY_TOTAL [7]: 2.7 g
KIDNEY_L [8]: 1.6 g
KIDNEY_R [8]: 1.5 g
KIDNEY_TOTAL [8]: 3.1 g
LIVER [6]: 12.7 g
LIVER [7]: 14.6 g
LIVER [8]: 17.3 g
A/G [6]: 0.8
ALP [6]: 1387.6 IU/L
ALT [6]: 50 IU/L
AST [6]: 79.4 IU/L
BUN [6]: 16 mg/dL
CRE [6]: 0.2 mg/dL
Ca [6]: 10.9 mg/dL
Cl [6]: 106.2 meq/L
DBIL [6]: 0.032 mg/dL
GLC [6]: 180.8 mg/dL
IP [6]: 6.6 mg/dL
K [6]: 4.4 meq/L
LDH [6]: 97.4 IU/L
Na [6]: 144.4 meq/L
PL [6]: 162.8 mg/dL
RALB [6]: 2.8 g/dL
TBIL [6]: 0.08 mg/dL
TC [6]: 74.6 mg/dL
TG [6]: 133.4 mg/dL
TP [6]: 6 g/dL
gamma-GTP [6]: 1 IU/L
A/G [7]: 0.8
ALP [7]: 1241.8 IU/L
ALT [7]: 42.6 IU/L
AST [7]: 73.4 IU/L
BUN [7]: 14.2 mg/dL
CRE [7]: 0.2 mg/dL
Ca [7]: 10.8 mg/dL
Cl [7]: 105.8 meq/L
DBIL [7]: 0.036 mg/dL
GLC [7]: 170.4 mg/dL
IP [7]: 6.5 mg/dL
K [7]: 4.4 meq/L
LDH [7]: 97.8 IU/L
Na [7]: 143.6 meq/L
PL [7]: 150.8 mg/dL
RALB [7]: 2.8 g/dL
TBIL [7]: 0.1 mg/dL
TC [7]: 71.6 mg/dL
TG [7]: 91.2 mg/dL
TP [7]: 6.1 g/dL
gamma-GTP [7]: 1 IU/L
A/G [8]: 0.8
ALP [8]: 1352.6 IU/L
ALT [8]: 36.4 IU/L
AST [8]: 65 IU/L
BUN [8]: 16.8 mg/dL
CRE [8]: 0.3 mg/dL
Ca [8]: 11 mg/dL
Cl [8]: 104 meq/L
DBIL [8]: 0.042 mg/dL
GLC [8]: 182.2 mg/dL
IP [8]: 6.5 mg/dL
K [8]: 4 meq/L
LDH [8]: 93.4 IU/L
Na [8]: 143.8 meq/L
PL [8]: 155.8 mg/dL
RALB [8]: 2.9 g/dL
TBIL [8]: 0.1 mg/dL
TC [8]: 71.2 mg/dL
TG [8]: 117.2 mg/dL
TP [8]: 6.4 g/dL
gamma-GTP [8]: 1.4 IU/L
